{
  "source": "patent US20260274798A1",
  "about": "“PENTAMIDINE ANALOGUE POLYMORPHS, FORMULATIONS, AND METHODS THEREOF” (AURANSA INC., priority 2023, published 2026)",
  "format_in_all_cases": "physicochemical",
  "key": {"[1]": {"assay": "Thermodynamic solubility in water and a pH 7.4 phosphate buffer", "details": "slurry agitated at ambient ca. 24 hours, HPLC, diacetate", "experimental": "(§1) 25.6 mL of 2-propanol was added to the lyophilized Compound A diacetate salt to form a slurry. The slurry was then temperature cycled between ambient and 40° C. in 4 hour cycles with agitation for ca. 24 hours. The slurry was then filtered and the isolated solids collected into a scintillation vial. A subsample was analyzed by XRPD and the vial was left uncapped to allow the solids to […] at ambient for ca. 24 hours. The material was then re-analyzed by XRPD post-drying and fully characterized using the following techniques: TG/DSC, DSC, DVS with post-DVS XRPD analysis, PLM, FT-IR, ^1H NMR, Purity by HPLC, TG/DSC with post TG/DSC XRPD analysis, and 7 Day Stability Assessment (ca. 10 mg of the material was stored at 40° C./75% RH. 80° C. and ambient light and humidity for 1 week. The solids were then analyzed by XRPD and purity obtained by HPLC). Thermodynamic solubility in water and a pH 7.4 phosphate buffer (The appropriate media was added in 100 μL aliquots to ca. 20 mg of the material to form a slurry. The samples were then sealed and agitated at ambient for ca. 24 hours before being centrifuge filtered. The isolated solids were analyzed by XRPD and the concentration of the mother liquors determined by HPLC).\nThe material appears highly insoluble in the phosphate buffer with all Forms having a solubility of 0.3 mg/mL except from Form 2 which has a solubility of 0.2 mg/mL."}, "[2]": {"assay": "Dynamic vapour sorption (DVS) with post-DVS XRPD", "details": "25° C.", "experimental": "Approximately, 10-20 mg of sample was placed into a mesh vapour sorption balance pan and loaded into a DVS Intrinsic dynamic vapour sorption balance by Surface Measurement Systems. The sample was subjected to a ramping profile from 40-90% relative humidity (RH) at 10% increments, maintaining the sample at each step until a stable weight had been achieved (dm/dt 0.004%, minimum step length 30 minutes, maximum step length 500 minutes) at 25° C. After completion of the sorption cycle, the sample was dried using the same procedure to 0% RH and then a second sorption cycle back to 40% RH. Two cycles were performed. The weight change during the sorption/desorption cycles were plotted, allowing for the hygroscopic nature of the sample to be determined. XRPD analysis was then carried out on any solid retained."}, "[3]": {"assay": "7 Day Stability Assessment (XRPD form and HPLC purity after storage)", "details": "diacetate; for one-week stability: form by XRPD: 1 week (Form 1: 2 and 7 days)", "experimental": "as §1"}, "[4]": {"assay": "Variable humidity X-ray powder diffraction (VH-XRPD)", "details": "30° C.", "experimental": "XRPD analysis was carried out on a Philips X'Pert Pro Multipurpose diffractometer equipped with a humidity chamber. The samples were scanned between 4 and 36 °2θ using Cu K radiation (α1=1.54060 A; α2=1.54443 A; β=1.39225 A; α1:α2 ratio=0.5) running in Bragg-Brentano geometry (step size 0.008 °2θ) using 40 kV/40 mA generator settings. Measurements were performed at 30° C. during the humidity profile described below: • Initial scan at 40% RH • Humidity increased to 90% RH for 105 minutes (scan after 5 and 105 minutes) • Humidity decreased to 40% RH for 10 minutes (scan after 5 minutes) • Humidity decreased to 5% RH for 60 minutes (scan taken after 60 minutes) • Humidity decreased to 0% RH for 17 hours (scan taken after 17 hours) • Humidity increased to 40% RH for 60 minutes (scan taken at 30 and 60 minutes) • Humidity increased to 60% RH for 105 minutes (scan taken at 5 and 105 minutes) • Humidity increased to 80% RH for 60 minutes (scan taken at 5 and 55 minutes)"}},
  "note": "“Also recorded” adds a separate entry of the source.",
  "data": [
    {"molecule": "CC(=O)O.CC(=O)O.N=C(N)c1ccc(OCCCCCOc2ccc(C(=N)N)nc2)cc1", "note": "[Form 9, 5-((5-(4-carbamimidoylphenoxy)pentyl)oxy)picolinimidamide diacetate]", "values": [
      {"measurement": "solubility", "setting": "[1]; Water", "value": 44.0, "unit": "mg/mL"},
      {"measurement": "solubility", "setting": "[1]; pH 7.4 Phosphate Buffer", "value": 0.3, "unit": "mg/mL"},
      {"measurement": "mass uptake at 90% RH", "setting": "[2]; DVS, 90% RH, diacetate", "value": 8, "unit": "%"},
      {"measurement": "hygroscopicity by DVS", "setting": "[2]; DVS, diacetate", "value": "hygroscopic"},
      {"measurement": "form of recovered solid by post-DVS XRPD", "setting": "[2]; after DVS cycles, diacetate", "value": "mixture of phases with peaks matching Form 9 and new peaks"},
      {"measurement": "weight loss on dehydration during DVS", "setting": "[2]; below 10% RH", "value": 7.3, "unit": "wt. %"},
      {"measurement": "weight increase on form change during DVS", "setting": "[2]; first sorption cycle at 80% RH", "value": 5.2, "unit": "wt. %"},
      {"measurement": "form change during DVS", "setting": "[2]; first sorption cycle at 80% RH, diacetate", "value": "form change to Form 2; also recorded: convert to Form 2"},
      {"measurement": "one-week stability: form by XRPD", "setting": "[3]; 40° C./75% RH", "value": "remained unchanged by XRPD"},
      {"measurement": "one-week stability: form by XRPD", "setting": "[3]; 80° C.", "value": "convert to Form 1"},
      {"measurement": "one-week stability: form by XRPD", "setting": "[3]; ambient temperature and humidity", "value": "remained unchanged by XRPD"},
      {"measurement": "1 Week Stability", "setting": "[3]; form by XRPD after storage at 40° C./75% RH, ambient or 80° C.", "value": "Converts to pattern 1 at 80 °C"},
      {"measurement": "form by VH-XRPD", "setting": "[4]; 90% RH", "value": "convert to Form 2"},
      {"measurement": "form by VH-XRPD", "setting": "[4]; drying at 0% RH", "value": "becomes poorly crystalline"}
    ]}
  ]
}
